Data on 32 molecules can be found in patent US8785445B2 (Array BioPharma Inc., priority 2008, dated 2014).

This experiment has as its target T1, human DP2 (Homo sapiens, UniProt Q9Y5Y4).
T1 construct: expressed in transfected cells; membranes prepared
T1 sequence (Q9Y5Y4 1-395): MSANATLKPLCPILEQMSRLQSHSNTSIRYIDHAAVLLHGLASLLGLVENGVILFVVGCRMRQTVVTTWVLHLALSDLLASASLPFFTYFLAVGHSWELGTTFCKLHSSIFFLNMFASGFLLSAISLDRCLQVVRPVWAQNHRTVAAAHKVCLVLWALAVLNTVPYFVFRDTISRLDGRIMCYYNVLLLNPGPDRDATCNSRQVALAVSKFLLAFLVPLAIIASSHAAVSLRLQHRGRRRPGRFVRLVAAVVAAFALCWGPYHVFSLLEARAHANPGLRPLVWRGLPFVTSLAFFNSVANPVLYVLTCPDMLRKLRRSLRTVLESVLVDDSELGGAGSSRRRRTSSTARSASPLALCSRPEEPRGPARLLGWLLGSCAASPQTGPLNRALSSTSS
Briefly: DP-2 binding inhibition assay (3H-PGD2, membranes of DP2-expressing K562 cells). The gist of the method:
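Displacement of 3H-PGD2 was measured by filtration and scintillation counting after 60 min at room temperature, using membranes of DP2-transfected K562 cells in 0.1% BSA, 1% HSA or 4% HSA.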

[1] abbreviates: 4% HSA, read-out: EC50 (nM) 4% HSA.
Setting [2] is: 0.1% BSA, read-out: EC50 (nM) 0.1% BSA.
[3] abbreviates: 1% HSA, read-out: EC50 (nM) 1% HSA.

Read-outs that look alike come from different tables or passages of the source.

The term EC50 denotes the concentration needed to bring the measured effect to its halfway point. Take `CC(C)(C)c1csc(CCNC(=O)c2ccc(Oc3cc4c(cc3Cl)C(C(=O)O)CCO4)cc2)n1` (centres unmarked) [Example 222, 7-(4-(2-(4-tert-butylthiazol-2-yl)ethylcarbamoyl)phenoxy)-6-chlorochroman-4-carboxylic acid]: the half-maximal effective concentration (EC50) under setting [1] came to 1070 nM.
Same read-out and setting: then `Cc1cccc(-c2cccc(NC(=O)c3ccc(Oc4cc5c(cc4C#N)C(C(=O)O)CCO5)cc3)n2)c1C` (centres unmarked) [Example 40, 6-Cyano-7-(4-(6-(2,3-dimethylphenyl)pyridin-2-ylcarbamoyl)-phenoxy)-chroman-4-carboxylic acid], with 120 nM.
Take `N#Cc1cc2c(cc1Oc1ccc(C(=O)Nc3ccc4nc(C(F)(F)F)[nH]c4c3)cc1)OCCC2C(=O)O` (centres unmarked) [Example 191, 6-cyano-7-(4-(2-(trifluoromethyl)-1H-benzo[d]imidazol-6-ylcarbamoyl)phenoxy) chroman-4-carboxylic acid]: the concentration for a half-maximal effect (EC50) runs as follows: under setting [2], 41.5 nM; under setting [3], 137 nM.
The like results for `N#Cc1cc2c(cc1Oc1ccc(C(=O)Nc3nc4ccc(F)cc4s3)cc1)OCCC2C(=O)O` (centres unmarked) [Example 195, 6-cyano-7-(4-(6-fluorobenzo[d]thiazol-2-ylcarbamoyl)phenoxy) chroman-4-carboxylic acid] were, in that order, 12.9 nM and 194 nM.
For the molecule `O=C(NCCc1ccc(C(F)(F)F)nc1C1CC1)c1ccc(Oc2cc3c(cc2Cl)C(C(=O)O)CCO3)cc1` (centres unmarked) [Example 186, Sodium 6-Chloro-7-(4-(2-(2-cyclopropyl-6-(trifluoromethyl)pyridin-3-yl)ethylcarbamoyl)phenoxy)chroman-4-carboxylate], the EC50 under setting [1] was found to be 32.6 nM.
Still for that read-out and setting: with `O=C(Nc1cncc(-c2cccc(C(F)(F)F)c2)n1)c1ccc(Oc2cc3c(cc2Cl)C(C(=O)O)CCO3)cc1` (centres unmarked) [Example 94, 6-chloro-7-(4-(6-(3-(trifluoromethyl)phenyl)pyrazin-2-ylcarbamoyl)phenoxy)chroman-4-carboxylic acid] the figure was 208 nM.
On the same count and under the same terms, then `CC(C)Cc1cccc(NC(=O)c2ccc(Oc3cc4c(cc3Cl)C(C(=O)O)CCO4)cc2)n1` (centres unmarked) [Example 105, 6-Chloro-7-(4-(6-isobutylpyridin-2-ylcarbamoyl)phenoxy)chroman-4-carboxylic acid], with 133 nM; and `Cc1nc(NC(=O)c2ccc(Oc3cc4c(cc3Cl)C(C(=O)O)CCO4)cc2)cc(-c2ccc(Cl)cc2)n1` (centres unmarked) [Example 101, Sodium 6-chloro-7-(4-(6-(4-chlorophenyl)-2-methylpyrimidin-4-ylcarbamoyl)phenoxy)chroman-4-carboxylate], with 998 nM; and `COc1ccc(-c2ccc(NC(=O)c3ccc(Oc4cc5c(cc4Cl)C(C(=O)O)CCO5)cc3)nn2)cc1` (centres unmarked) [Example 63, Sodium 6-chloro-7-(4-(6-(4-methoxyphenyl)pyridazin-3-ylcarbamoyl)phenoxy)chroman-4-carboxylate], with 1460 nM.
`O=C(Nc1cccc(-c2ccc(F)c(F)c2)n1)c1ccc(Oc2cc3c(cc2Cl)C(C(=O)O)CCO3)cc1` (centres unmarked) [Example 81, 6-Chloro-7-(4-(6-(3,4-difluorophenyl)pyridin-2-ylcarbamoyl)phenoxy)chroman-4-carboxylic acid]: the EC50 under setting [1] amounted to 97.9 nM.
Regarding `O=C(Nc1ccnc(-c2ccc(Cl)cc2)n1)c1ccc(Oc2cc3c(cc2Cl)C(C(=O)O)CCO3)cc1` (centres unmarked) [Example 100, sodium 6-chloro-7-(4-(2-(4-chlorophenyl)pyrimidin-4-ylcarbamoyl)phenoxy)chroman-4-carboxylate], the EC50 under setting [1] amounted to 46 nM.
As to `CSc1ccc(-c2cccc(NC(=O)c3ccc(Oc4cc5c(cc4Cl)C(C(=O)O)CCO5)cc3)n2)cc1` (centres unmarked) [Example 83, 6-Chloro-7-(4-(6-(4-(methylthio)phenyl)pyridin-2-ylcarbamoyl)phenoxy)chroman-4-carboxylic acid], under setting [1], the EC50 came out at 71.3 nM.
With `O=C(Nc1nc(-c2ccc(Cl)cc2)cs1)c1ccc(Oc2cc3c(cc2Cl)C(C(=O)O)CCO3)cc1` (centres unmarked) [Example 152, 6-chloro-7-(4-(4-(4-chlorophenyl)thiazol-2-ylcarbamoyl)phenoxy)chroman-4-carboxylic acid], under setting [1], the EC50 worked out at 45.3 nM.
For the molecule `O=C(Nc1ccn(-c2ccccc2)n1)c1ccc(Oc2cc3c(cc2Cl)C(C(=O)O)CCO3)cc1` (centres unmarked) [Example 171], the EC50 under setting [1] came to 97.5 nM.
With `N#Cc1cc2c(cc1Oc1ccc(C(=O)NCCc3ccc(C(F)(F)F)cn3)cc1)OCCC2C(=O)O` (centres unmarked) [Example 11], the concentration giving a half-maximal response (EC50) runs as follows: under setting [2], 47.6 nM; under setting [3], 183 nM.
In the case of `O=C(Nc1ccc(-c2ccc(C(F)(F)F)c(Cl)c2)nn1)c1ccc(Oc2cc3c(cc2Cl)C(C(=O)O)CCO3)cc1` (centres unmarked) [Example 60, Sodium 6-chloro-7-(4-(6-(3-chloro-4-(trifluoromethyl)phenyl)pyridazin-3-ylcarbamoyl)phenoxy)chroman-4-carboxylate], the EC50 under setting [1] is 63 nM.
Regarding `O=C(Nc1ccnc(-c2cccc(Cl)c2)c1)c1ccc(Oc2cc3c(cc2Cl)C(C(=O)O)CCO3)cc1` (centres unmarked) [Example 129, 6-Chloro-7-(4-(2-(3-chlorophenyl)pyridin-4-ylcarbamoyl)phenoxy)chroman-4-carboxylic acid], the EC50 under setting [1] was 437 nM.
For the molecule `O=C(Nc1cccc(-c2ccc(Cl)cc2)n1)c1ccc(Oc2cc3c(cc2Cl)C(C(=O)O)CCO3)cc1` (stereo in doubt) [Example 206, (R)-6-chloro-7-(4-(6-(4-chlorophenyl)pyridin-2-ylcarbamoyl)phenoxy) chroman-4-carboxylic acid], under setting [1], the EC50 turned out to be 5000 nM.
The same measure, in the same setting: with `O=C(Nc1cncc(-c2cccc(Cl)c2)n1)c1ccc(Oc2cc3c(cc2Cl)C(C(=O)O)CCO3)cc1` (centres unmarked) [Example 92, 6-Chloro-7-(4-(6-(3-chlorophenyl)pyrazin-2-ylcarbamoyl)phenoxy)chroman-4-carboxylic acid] the figure was 415 nM.
The same measure, in the same setting: then `O=C(Nc1ccc(-c2ccc(Cl)c(F)c2)nn1)c1ccc(Oc2cc3c(cc2Cl)C(C(=O)O)CCO3)cc1` (centres unmarked) [Example 67, Sodium 6-chloro-7-(4-(6-(4-chloro-3-fluorophenyl)pyridazin-3-ylcarbamoyl)phenoxy)chroman-4-carboxylate], with 203 nM.
Consider `O=C(Nc1cncc(-c2ccc(Cl)cc2)n1)c1ccc(Oc2cc3c(cc2Cl)C(C(=O)O)CCO3)cc1` (centres unmarked) [Example 79, 6-chloro-7-(4-(6-(4-chlorophenyl)pyrazin-2-ylcarbamoyl)phenoxy)chroman-4-carboxylic acid], for which the EC50 under setting [1] was 105 nM.
As to `O=C(Nc1ccn(-c2cccc(Cl)c2F)n1)c1ccc(Oc2cc3c(cc2Cl)C(C(=O)O)CCO3)cc1` (centres unmarked) [Example 169, 6-chloro-7-(4-(1-(3-chloro-2-fluorophenyl)-1H-pyrazol-3-ylcarbamoyl)phenoxy)chroman-4-carboxylic acid], the EC50 under setting [1] is 76 nM.
Same read-out and setting: then `O=C(Nc1cccc(-c2ccc(F)cc2)n1)c1ccc(Oc2cc3c(cc2Cl)C(C(=O)O)CCO3)cc1` (centres unmarked) [Example 109, 6-Chloro-7-(4-(6-(4-fluorophenyl)pyridin-2-ylcarbamoyl)phenoxy)chroman-4-carboxylic acid], with 129 nM.
Regarding `CC(C)(C)c1cc(NC(=O)c2ccc(Oc3cc4c(cc3Cl)C(C(=O)O)CCO4)cc2)no1` (centres unmarked) [Example 158, 7-(4-(5-tert-butylisoxazol-3-ylcarbamoyl)phenoxy)-6-chlorochroman-4-carboxylic acid], the EC50 under setting [1] worked out at 155 nM.
As for `O=C(Nc1cc(-c2ccccc2Cl)ccn1)c1ccc(Oc2cc3c(cc2Cl)C(C(=O)O)CCO3)cc1` (centres unmarked) [Example 122, 6-Chloro-7-(4-(4-(2-chlorophenyl)pyridin-2-ylcarbamoyl)phenoxy)chroman-4-carboxylic acid], the EC50 under setting [1] is 2580 nM.
The same measure, in the same setting: with `O=C(NCCn1ccc(-c2ccc(Cl)cc2)n1)c1ccc(Oc2cc3c(cc2Cl)C(C(=O)O)CCO3)cc1` (centres unmarked) [Example 219, 6-chloro-7-(4-(2-(3-(4-chlorophenyl)-1H-pyrazol-1-yl)ethylcarbamoyl)phenoxy) chroman-4-carboxylic acid] the figure was 1370 nM.
Still for that read-out and setting: with `Cc1cc(NC(=O)c2ccc(Oc3cc4c(cc3Cl)C(C(=O)O)CCO4)cc2)nc2ccccc12` (centres unmarked) [Example 21, 6-Chloro-7-(4-(4-methylquinolin-2-ylcarbamoyl)phenoxy)chroman-4-carboxylic acid] the figure was 265 nM.
With `Cc1nc2ccc(NC(=O)c3ccc(Oc4cc5c(cc4C#N)C(C(=O)O)CCO5)cc3)cc2s1` (centres unmarked) [Example 189, 6-cyano-7-(4-(2-methylbenzo[d]thiazol-6-ylcarbamoyl)phenoxy) chroman-4-carboxylic acid], the EC50 under setting [2] was determined as 43.3 nM.
`COc1ccc(-c2cccc(NC(=O)c3ccc(Oc4cc5c(cc4Cl)C(C(=O)O)CCO5)cc3)n2)cn1` (centres unmarked) [Example 54, Sodium 6-chloro-7-(4-(6′-methoxy-2,3′-bipyridin-6-ylcarbamoyl)phenoxy)chroman-4-carboxylate]: the EC50 under setting [1] came to 337 nM.
Take `O=C(Nc1ccc2cccc(Cl)c2n1)c1ccc(Oc2cc3c(cc2Cl)C(C(=O)O)CCO3)cc1` (centres unmarked) [Example 25, 6-Chloro-7-(4-(8-chloroquinolin-2-ylcarbamoyl)phenoxy)chroman-4-carboxylic acid]: under setting [1], the EC50 was determined as 5980 nM.
Under “EC50 (nM) 4% HSA, 4% HSA”, `COc1ccc(CCNC(=O)c2ccc(Oc3cc4c(cc3Cl)C(C(=O)O)CCO4)cc2)c(OC)n1` (centres unmarked) [Example 140, Sodium 6-chloro-7-(4-(2-(2,6-dimethoxypyridin-3-yl)ethylcarbamoyl)phenoxy)chroman-4-carboxylate] displayed an EC50 of 107 nM.
Regarding `O=C(Nc1nc2ccc(Cl)cc2s1)c1ccc(Oc2cc3c(cc2Cl)C(C(=O)O)CCO3)cc1` (centres unmarked) [Example 207, 6-chloro-7-(4-(6-chlorobenzo[d]thiazol-2-ylcarbamoyl)phenoxy) chroman-4-carboxylic acid], the EC50 under setting [1] is 105 nM.
